ChEMBL document CHEMBL4330081, “Rational design of 5-((1H-imidazol-1-yl)methyl)quinolin-8-ol derivatives as novel bromodomain-containing protein 4 inhibitors” (Eur J Med Chem, 2019)

Columns and labels:
[1] = molecular target: T1, Bromodomain-containing protein 4 (Homo sapiens, UniProt O60885); assay: Inhibition of BRD4 BD1 (unknown origin) at 50 uM using biotin labelled NeC: SGRG-K(Ac)-GG-K(Ac)-GLG-K(Ac)-GGA-K(Ac)-RHRKVGG-K as substrate preincubated for 15 mins followed by substrate addition measured after 30 mins by alpha screen assay relative to control
[2] = molecular target: T1, Bromodomain-containing protein 4; assay: Inhibition of recombinant full length human N-terminal His6-tagged BRD4 (2 to 1362 residues) expressed in baculovirus infected insect cells using histone H4 peptide as substrate by alpha screen assay
[3] = molecular target: T1, Bromodomain-containing protein 4; assay: Inhibition of BRD4 BD1 (unknown origin) at 10 uM using biotin labelled NeC: SGRG-K(Ac)-GG-K(Ac)-GLG-K(Ac)-GGA-K(Ac)-RHRKVGG-K as substrate preincubated for 15 mins followed by substrate addition measured after 30 mins by alpha screen assay relative to control
[4] = molecular target: T1, Bromodomain-containing protein 4; assay: Inhibition of BRD4 BD1 (unknown origin) using biotin labelled NeC: SGRG-K(Ac)-GG-K(Ac)-GLG-K(Ac)-GGA-K(Ac)-RHRKVGG-K as substrate preincubated for 15 mins followed by substrate addition measured after 30 mins by alpha screen assay
MM1.S = assay: Antiproliferative activity against human MM1S cells after 72 hrs by CellTiter Glo luminescent assay; format: functional, cell-based
hERG (KCNH2) = hERG (KCNH2) (Homo sapiens, UniProt Q12809); assay: in vitro; conditions: CHO cells expressing human ERG
Description: Inhibition of human ERG expressed in CHO cells at 40 uM at -80 mV holding potential after 2.5 mins by Qpatch clamp assay relative to control

MV4-11 = assay: Antiproliferative activity against human MV4-11 cells after 72 hrs by CellTiter Glo luminescent assay; format: functional, cell-based; conditions: MV4-11, 72 h
[5] = molecular target: T1, Bromodomain-containing protein 4
Description: Stabilization of BRD4 BD1 (unknown origin) assessed as change in melting temperature at protein to test compound molar ratio of 1:40 by SYPRO Orange dye based fluorescence analysis

MDA-MB-231 = assay: Antiproliferative activity against human MDA-MB-231 cells after 72 hrs by CellTiter Glo luminescent assay; format: functional, cell-based; conditions: MDA-MB-231, 72 h
[6] = Half life in human hepatocytes at 1 uM up to 120 mins by LC/MS analysis; format: ADME, cell-based, Hepatocyte
[7] = molecular target: T1, Bromodomain-containing protein 4; assay: Inhibition of BRD4 in human MV4-11 cells assessed as down regulation of c-myc after 6 hrs by Western blot analysis; format: cell-based
[8] = molecular target: T1, Bromodomain-containing protein 4; assay: Inhibition of BRD4 in human MM1S cells assessed as down regulation of c-myc after 6 hrs by Western blot analysis; format: cell-based
[9] = molecular target: T1, Bromodomain-containing protein 4; assay: Stabilization of BRD4 BD1 (unknown origin) assessed as change in melting temperature at protein to test compound molar ratio of 1:80 by SYPRO Orange dye based fluorescence analysis
[10] = molecular target: T1, Bromodomain-containing protein 4; assay: Stabilization of BRD4 BD1 (unknown origin) assessed as change in melting temperature at protein to test compound molar ratio of 1:20 by SYPRO Orange dye based fluorescence analysis
[11] = molecular target: T1, Bromodomain-containing protein 4; assay: Stabilization of BRD4 BD1 (unknown origin) assessed as change in melting temperature at protein to test compound molar ratio of 1:10 by SYPRO Orange dye based fluorescence analysis

hERG (KCNH2), sequence (Q12809 whole entry): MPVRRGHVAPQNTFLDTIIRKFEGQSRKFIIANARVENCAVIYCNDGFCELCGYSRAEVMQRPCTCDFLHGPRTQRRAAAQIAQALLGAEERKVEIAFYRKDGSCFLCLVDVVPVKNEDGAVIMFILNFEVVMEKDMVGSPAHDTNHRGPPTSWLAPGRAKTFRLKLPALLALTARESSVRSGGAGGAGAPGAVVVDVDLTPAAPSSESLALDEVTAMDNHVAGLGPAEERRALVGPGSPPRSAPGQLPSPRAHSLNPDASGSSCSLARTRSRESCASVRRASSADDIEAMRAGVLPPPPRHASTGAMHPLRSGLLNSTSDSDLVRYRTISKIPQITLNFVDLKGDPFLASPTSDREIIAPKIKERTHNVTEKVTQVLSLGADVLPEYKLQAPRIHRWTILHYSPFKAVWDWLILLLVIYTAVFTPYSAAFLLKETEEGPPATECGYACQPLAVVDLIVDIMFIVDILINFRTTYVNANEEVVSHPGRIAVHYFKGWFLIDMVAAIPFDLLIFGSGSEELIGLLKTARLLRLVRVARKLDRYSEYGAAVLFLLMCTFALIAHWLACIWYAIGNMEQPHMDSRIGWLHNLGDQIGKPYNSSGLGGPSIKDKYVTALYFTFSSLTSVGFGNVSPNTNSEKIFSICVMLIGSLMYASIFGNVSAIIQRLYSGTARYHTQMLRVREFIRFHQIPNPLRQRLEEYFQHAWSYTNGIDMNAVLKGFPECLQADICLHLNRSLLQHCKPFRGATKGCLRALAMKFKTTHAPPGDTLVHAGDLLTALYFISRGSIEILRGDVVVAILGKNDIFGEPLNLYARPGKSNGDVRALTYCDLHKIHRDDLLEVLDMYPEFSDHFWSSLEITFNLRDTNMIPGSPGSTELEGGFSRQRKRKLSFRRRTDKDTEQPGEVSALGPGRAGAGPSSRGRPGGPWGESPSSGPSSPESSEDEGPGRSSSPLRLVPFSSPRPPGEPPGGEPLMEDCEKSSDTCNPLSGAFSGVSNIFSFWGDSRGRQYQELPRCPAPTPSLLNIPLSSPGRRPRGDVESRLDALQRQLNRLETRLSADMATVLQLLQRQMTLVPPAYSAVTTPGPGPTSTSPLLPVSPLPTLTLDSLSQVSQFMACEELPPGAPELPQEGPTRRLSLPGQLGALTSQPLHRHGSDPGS

For `Cc1cc(O)c2cccc(O)c2n1`, the inhibition [1] was -0%.
`O=C(C[n+]1cccc2cccc(O)c21)c1ccccc1` showed an inhibition [1] of -0%.
In the case of `Cc1ccc(C(=O)C[n+]2cccc3cccc(O)c32)cc1`, the inhibition [1] is reported as -0%.
Compound `Cc1sc2c(c1C)C(c1ccccc1)=N[C@@H](CC(=O)OC(C)(C)C)c1nnc(C)n1-2` has an IC50 [2] of 33 nM.
Work on `O=C1c2ccccc2C(=O)N1Cc1ccc(O)c2ncccc12` yielded an inhibition [3] of 30%.
With `O=S(=O)(O)c1ccc(/N=N/c2ccc(O)c3ncccc23)cc1` the inhibition [3] was -0%.
Compound `Oc1ccc(CSc2ccccc2)c2cccnc12` has an inhibition [3] of 86% and an IC50 [4] of 3000 nM.
Compound `CN(C)c1ccc2cccc(O)c2n1` has an inhibition [3] of -0%.
Work on `CCCOCc1ccc(O)c2ncccc12` yielded an inhibition [3] of 96% and an IC50 [4] of 2100 nM.
`Oc1ccc(Cn2cccn2)c2cccnc12` showed an IC50 (MM1.S) of 700 nM, an IC50 [4] of 76 nM and an inhibition at 2.5 min, 40 µM (hERG (KCNH2)) of 8.3%. For the same compound, the IC50 (MV4-11) was 1600 nM, the ΔTm [5] was 4.5 °C and the IC50 (MDA-MB-231) was 3600 nM.
`Oc1ccc(Cn2c(-c3cscn3)nc3ccccc32)c2cccnc12` showed an IC50 (MM1.S) of 2100 nM, an IC50 [4] of 73 nM and an IC50 (MV4-11) of 1500 nM. It also gave a ΔTm [5] of 4.7 °C and an IC50 (MDA-MB-231) of 3700 nM.
With `COc1nnc2ccc(N3CCC(c4ccc(OCCN5CCN(C)C(=O)C5C)cc4)CC3)nn12` (configuration not stated) the IC50 [2] was 1.7 nM.
In the case of `Oc1c(Br)cc(Br)cc1/C=C/c1ccc2cccc(O)c2n1`, the inhibition [1] is reported as -0%.
Compound `Oc1ccc(CNc2ccc(Cl)cn2)c2cccnc12` has an inhibition [3] of 12%.
`O=C(Oc1ccc(Cn2ccnc2)c2cccnc12)c1ccccc1` gave a half-life at 1 µM [6] of 1.4 min, an IC50 (MM1.S) of 2900 nM and an IC50 [4] of 67 nM. The IC50 (MV4-11) was 9000 nM, the ΔTm [5] was 3.8 °C and the IC50 (MDA-MB-231) was 12300 nM.
`Cc1cc2ncn(Cc3ccc(O)c4ncccc34)c2cc1C` gave an inhibition [3] of 23%.
For `Oc1cccc2ccc(/C=C/c3ccc(-c4cccc(Br)c4)o3)nc12`, the inhibition [1] was less than 7.8%.
Compound `Nc1cc(S(=O)(=O)O)c2cccnc2c1O` has an inhibition [3] of -0%.
Compound `Cc1cc(C)c2ccc(/C=N/O)nc2c1O` has an inhibition [3] of 6%.
Compound `Cc1cc(C)c2ccc(C=O)nc2c1O` has an inhibition [3] of -0%.
Work on `O=C(N/N=C/c1ccc(O)c2ncccc12)c1cccc(Br)c1` yielded an inhibition [3] of 73% and an IC50 [4] of 5200 nM.
In the case of `N=C(N)NCCC[C@H](NC(=O)CCC(=O)OC[N+]1(c2cc(=O)c3cccc(-c4ccccc4)c3o2)CCOCC1)C(=O)NCC(=O)N[C@@H](CC(=O)O)C(=O)N[C@@H](CO)C(=O)[O-]` [SF-1126], the IC50 [2] is reported as 5300 nM.
`O=C(C[n+]1cccc2cccc(O)c21)c1ccc(Cl)cc1` showed an inhibition [1] of -0%.
In the case of `Oc1ccc(Cn2cnc3ccccc32)c2cccnc12`, the half-life at 1 µM [6] is reported as 31 min, the IC50 (MM1.S) is reported as 3000 nM and the inhibition [7] is reported as “Dose-dependent effect”. For the same compound, the inhibition [8] was “Dose-dependent effect”, the IC50 [4] was 337 nM and the inhibition at 2.5 min, 40 µM (hERG (KCNH2)) was 33%. For the same compound, the IC50 (MV4-11) was 1000 nM, the ΔTm [5] was 3.1 °C and the IC50 (MDA-MB-231) was 4700 nM.
In the case of `Cc1ccc2c(Cn3cnc(F)c3)ccc(OC(=O)OC(C)(C)C)c2n1`, the half-life at 1 µM [6] is reported as 1.6 min, the IC50 (MM1.S) is reported as 1100 nM and the IC50 [4] is reported as 46 nM. The IC50 (MV4-11) was 2900 nM, the ΔTm [5] was 4.6 °C and the IC50 (MDA-MB-231) was 2700 nM.
In the case of `Oc1ccc(Cn2cncn2)c2cccnc12`, the IC50 (MM1.S) is reported as 4300 nM, the IC50 [4] is reported as 95 nM and the IC50 (MV4-11) is reported as 5200 nM. The ΔTm [5] was 3.2 °C and the IC50 (MDA-MB-231) was 6700 nM.
`O=[N+]([O-])c1cccc(-c2ccc(/C=C/c3ccc4cccc(O)c4n3)o2)c1` showed an inhibition [1] of -0%.
`Oc1ccc(Cn2ccnc2)c2cccnc12` gave a half-life at 1 µM [6] of 21 min, an IC50 [4] of 101 nM and an inhibition at 2.5 min, 40 µM (hERG (KCNH2)) of 10%. For the same compound, the IC50 (MV4-11) was 27000 nM, the ΔTm [9] was 5 °C and the ΔTm [10] was 2.8 °C. It also gave a ΔTm [11] of 1.8 °C and a ΔTm [5] of 3.9 °C.
In the case of `Oc1ccc(CNc2ccccc2Br)c2cccnc12`, the inhibition [1] is reported as 46%.
Compound `O=[N+]([O-])c1ccc(O)c2ncccc12` [NITROXOLINE] has an IC50 (MV4-11) of 4900 nM and a ΔTm [5] of 3.9 °C.
`O=c1oc2ccc(Cl)cc2n1Cc1ccc(O)c2ncccc12` showed an inhibition [3] of 16%.
Compound `CC(=O)Oc1ccc(Cn2cnc(F)c2)c2cccnc12` has an IC50 (MM1.S) of 1100 nM, an IC50 [4] of 70 nM and an IC50 (MV4-11) of 2900 nM. For the same compound, the ΔTm [5] was 4.7 °C and the IC50 (MDA-MB-231) was 2200 nM.
For `O=[N+]([O-])c1cccc(S(=O)(=O)Nc2ccc(O)c3ncccc23)c1`, the inhibition [3] was -0%.
`O=C(CCc1ccccc1)N/N=C/c1ccc(O)c2ncccc12` showed an inhibition [3] of 86% and an IC50 [4] of 4300 nM.
In the case of `Oc1ccc(Cn2nnc3ccccc32)c2cccnc12`, the IC50 (MM1.S) is reported as 300 nM, the IC50 [4] is reported as 155 nM and the inhibition at 2.5 min, 40 µM (hERG (KCNH2)) is reported as 24%. It also gave an IC50 (MV4-11) of 1000 nM, a ΔTm [5] of 4.3 °C and an IC50 (MDA-MB-231) of 1300 nM.
